Marks after values point to notes of the source that are not given here.
Columns and labels:
[1] = taste dilution tests; cited from earlier work
[2] = system: trained panelists; assay: time-intensity analysis of cooling, beverage model system; assay type: in vivo; details: 100 ppm, 2-minute window
Description: In order to evaluate the potential use of menthol glycinates as […] different food, beverage and oral hygiene products, select compounds were incorporated in different application systems. A beverage model system, a lozenge and a mouthwash application were created, and time-intensity analysis was performed using trained discrimination analysis panelists. Time-Intensity (TI) is a temporal sensory method. During TI evaluations, assessors are asked to score the intensity of perception of a single attribute over consumption of the product. Compared to single point measurements, TI analysis can characterize the onset, decline and rates thereof, of particular sensory characteristics. This analysis may reveal rich information regarding the intensity of an attribute over the time domain and identify temporal perceptual differences among samples that can greatly impact the overall profile of a product. For each sample evaluation, a temporal curve is generated, based on duplication. The temporal curves for each panelist are combined to generate a combined curve for each product that is evaluated. The following distinct parameters were calculated: Imax: peak intensity or maximum observed intensity on the whole curve; […]: time point where the reaction to the stimulus is first perceived on the curve; Tmax: time position of the peak intensity on the curve; Tplateau: protraction of maximum intensity or duration of maximum intensity; Text: time point of extinction of the perception of the stimulus, defined as the position in time after the peak intensity where the measured intensity disappears (or the end of evaluation window); Iext: intensity at time of extinction or end of evaluation; R increase: slope or rate of intensity increase between […] and Tmax; R decrease: slope or rate of intensity decrease between Tmax and Text; and Area: the total area under the time-intensity curve. The formula detailed in Table 6 was employed to create a simple beverage model system to evaluate menthol glycinates of interest using time-intensity analysis. [table] For time-intensity (T-I) evaluation of the cooling attribute of the model beverage system 8 panelists were recruited (2 male, 6 female). Panelists were trained in basic taste descriptive analysis. A sweetness reference series (intensity range 2-12) was provided to be used as cross-modality reference to aid in scaling the intensity of the cool attribute present in the model beverage samples. Panelists evaluated samples in duplicates and all sample were presented blinded and in a randomized order using a 3-digit code. Panelists were instructed to hold the sample in their mouths for 30 seconds and then expectorate. During the hold period panelists were instructed to note cooling onset and intensity. After expectorating, the panelists continued to report cooling intensity at predetermined time points throughout an evaluation window of 2 minutes. Samples were presented pre-weighted, and panelists were instructed to evaluate the entire amount of sample to ensure uniformity among panelists and replicate evaluations. Evaluations were performed with at least 4 hours between them to ensure no carry over. Data analysis for generation of T-I statistics and ANOVA analysis to determine significant difference among samples was performed using R STUDIO.

Compound: CC1CCC(C(C)C)C(O)C1 (stereo not shown) [Menthol, menthol]
- cooling threshold [1]: 0.8 ppm
- Imax (peak cooling intensity) ([2]; 2% propylene glycol in water): 5^a
- AUC [2]: 429.1^a
- Rdec [2]: 0.03^a
- Rinc [2]: 0.12^a
- Tplateau (duration of maximum intensity) [2]: 23.3^a
- Tstart [2]: 10^a

Compound: CCCCN(CCCC)CC(=O)O[C@@H]1C[C@H](C)CC[C@H]1C(C)C [Product 10, (1R,2S,5R)-2-Isopropyl-5-methylcyclohexyl 2-(dibutylamino)acetate]
- Rdec [2]: 0.06^a
- Rinc [2]: 0.04^b
- Tstart [2]: 6.1^b

Compound: CC(C)[C@@H]1CC[C@@H](C)C[C@H]1OC(=O)CN(C)C(C)C [Product 16, (1R,2S,5R)-2-Isopropyl-5-methylcyclohexyl 2-(isopropyl(methyl)amino)acetate]
- Rdec [2]: 0.02^a
- Rinc [2]: 0.05^b
- Tstart [2]: 16^c

Compound: (1R,2S,5R)-2-Isopropyl-5-methylcyclohexyl 2-(isopropylamino)acetate [Product 7]
- Rdec [2]: 0.02^a
- Rinc [2]: 0.06^b
- Tstart [2]: 16^c

From patent publication US20210093531A1, “DERIVATIVES OF MENTHOL AND USES THEREOF” (Board of Trustees of Northern Illinois University, priority 2019, published 2021)
